Active and inactive are the calls of the source. No cut-off for these calls is given here.
Target: T1, Mu-type opioid receptor (Homo sapiens, UniProt P35372)
T1 sequence (P35372 whole entry): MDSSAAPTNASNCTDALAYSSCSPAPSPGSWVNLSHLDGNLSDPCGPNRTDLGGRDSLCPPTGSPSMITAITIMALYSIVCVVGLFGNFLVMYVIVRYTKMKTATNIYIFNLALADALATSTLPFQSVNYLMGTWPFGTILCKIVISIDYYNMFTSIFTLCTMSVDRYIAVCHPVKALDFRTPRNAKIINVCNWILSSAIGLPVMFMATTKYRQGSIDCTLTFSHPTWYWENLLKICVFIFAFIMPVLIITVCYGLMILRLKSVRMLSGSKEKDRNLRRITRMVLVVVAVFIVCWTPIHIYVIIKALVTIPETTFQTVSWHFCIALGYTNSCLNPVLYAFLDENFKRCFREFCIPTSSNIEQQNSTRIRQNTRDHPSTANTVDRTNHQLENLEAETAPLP
Assay: Agonist activity at human MOR expressed in CHO-K1 cells co-expressing G-alpha15 by calcium mobilization assay
Assay type: functional, cell-based
Conditions: not given
Work on `NC(=O)[C@@H]1CCCN1C(=O)[C@H]1CC(=O)NCCCC[C@@H](NC(=O)[C@@H](N)Cc2ccc(O)cc2)C(=O)NCC(=O)N[C@H](Cc2ccccc2)C(=O)N1` yielded an EC50 of 41.6 nM. `NC(=O)[C@H]1CCCN1C(=O)[C@@H]1CC(=O)NCCCC[C@@H](NC(=O)[C@@H](N)Cc2ccc(O)cc2)C(=O)NCC(=O)N[C@@H](Cc2ccccc2)C(=O)N1` showed an EC50 of 31.1 nM.

Same assay, conditions: cho-k1
`NC(=O)[C@H]1CCCN1C(=O)[C@@H]1CC(=O)NCCCC[C@@H](NC(=O)[C@@H](N)Cc2ccc(O)cc2)C(=O)NCC(=O)N[C@@H](Cc2ccc3ccccc3c2)C(=O)N1` gave an EC50 of 1.8 nM. With `C[C@H]1NC(=O)[C@H](NC(=O)[C@@H](N)Cc2ccc(O)cc2)CCCCNC(=O)C[C@H](C(=O)N2CCC[C@H]2C(N)=O)NC(=O)[C@H](Cc2ccccc2)NC1=O` the EC50 was 62.4 nM. Work on `CC1(C)NC(=O)[C@H](NC(=O)[C@@H](N)Cc2ccc(O)cc2)CCCCNC(=O)C[C@@H](C(=O)N2CCC[C@@H]2C(N)=O)NC(=O)[C@H](Cc2ccccc2)NC1=O` yielded an EC50 of 5.3 nM. Compound `CN1CC(=O)N[C@@H](Cc2ccccc2)C(=O)N[C@H](C(=O)N2CCC[C@@H]2C(N)=O)CC(=O)NCCCC[C@@H](NC(=O)[C@@H](N)Cc2ccc(O)cc2)C1=O` has an EC50 of 1150 nM. `NC(=O)[C@H]1CCCN1C(=O)[C@@H]1CC(=O)NCCCC[C@@H](NC(=O)[C@@H](N)Cc2ccc(O)cc2)C(=O)NCCC(=O)N[C@@H](Cc2ccccc2)C(=O)N1` gave an EC50 of 974 nM.

Target: T2, Kappa-type opioid receptor (Homo sapiens, UniProt P41145)
T2 sequence (P41145 whole entry): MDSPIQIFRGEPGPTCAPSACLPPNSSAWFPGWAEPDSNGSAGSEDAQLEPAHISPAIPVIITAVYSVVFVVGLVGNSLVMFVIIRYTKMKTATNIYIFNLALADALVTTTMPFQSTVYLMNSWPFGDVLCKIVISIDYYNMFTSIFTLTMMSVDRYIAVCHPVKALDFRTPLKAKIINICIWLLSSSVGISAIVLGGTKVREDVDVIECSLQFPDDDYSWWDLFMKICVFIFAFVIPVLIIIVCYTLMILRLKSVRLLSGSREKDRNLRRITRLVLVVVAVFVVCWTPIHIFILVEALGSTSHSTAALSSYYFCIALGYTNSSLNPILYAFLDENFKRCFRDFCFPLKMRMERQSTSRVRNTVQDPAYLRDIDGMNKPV
Assay: Agonist activity at human KOR expressed in CHO-K1 cells co-expressing G-alpha15 upto 100 uM by calcium mobilization assay
Assay type: functional, cell-based
Conditions: not given
For `NC(=O)[C@@H]1CCCN1C(=O)[C@H]1CC(=O)NCCCC[C@@H](NC(=O)[C@@H](N)Cc2ccc(O)cc2)C(=O)NCC(=O)N[C@H](Cc2ccccc2)C(=O)N1`, the Activity was “inactive”.

Target: T1, Mu-type opioid receptor
Assay: Agonist activity at human MOR expressed in CHO-K1 cells co-expressing G-alpha15 by calcium mobilization assay relative to control
Assay type: functional, cell-based
Conditions: filed as agonist
`C[C@H]1NC(=O)[C@H](NC(=O)[C@@H](N)Cc2ccc(O)cc2)CCCCNC(=O)C[C@H](C(=O)N2CCC[C@H]2C(N)=O)NC(=O)[C@H](Cc2ccccc2)NC1=O` showed an Emax of 115%. `NC(=O)[C@@H]1CCCN1C(=O)[C@H]1CC(=O)NCCCC[C@@H](NC(=O)[C@@H](N)Cc2ccc(O)cc2)C(=O)NCC(=O)N[C@H](Cc2ccccc2)C(=O)N1` gave an Emax of 104%.

Target: T2, Kappa-type opioid receptor
Assay: Agonist activity at human KOR expressed in CHO-K1 cells co-expressing G-alpha15 by calcium mobilization assay
Assay type: functional, cell-based
Conditions: not given
For `NC(=O)[C@H]1CCCN1C(=O)[C@@H]1CC(=O)NCCCC[C@@H](NC(=O)[C@@H](N)Cc2ccc(O)cc2)C(=O)NCC(=O)N[C@@H](Cc2ccccc2)C(=O)N1`, the EC50 was 2830 nM.

Same assay, conditions: cho-k1
`CC1(C)NC(=O)[C@H](NC(=O)[C@@H](N)Cc2ccc(O)cc2)CCCCNC(=O)C[C@@H](C(=O)N2CCC[C@@H]2C(N)=O)NC(=O)[C@H](Cc2ccccc2)NC1=O` showed an EC50 of 7250 nM.

Target: T3, Delta-type opioid receptor (Homo sapiens, UniProt P41143)
T3 sequence (P41143 whole entry): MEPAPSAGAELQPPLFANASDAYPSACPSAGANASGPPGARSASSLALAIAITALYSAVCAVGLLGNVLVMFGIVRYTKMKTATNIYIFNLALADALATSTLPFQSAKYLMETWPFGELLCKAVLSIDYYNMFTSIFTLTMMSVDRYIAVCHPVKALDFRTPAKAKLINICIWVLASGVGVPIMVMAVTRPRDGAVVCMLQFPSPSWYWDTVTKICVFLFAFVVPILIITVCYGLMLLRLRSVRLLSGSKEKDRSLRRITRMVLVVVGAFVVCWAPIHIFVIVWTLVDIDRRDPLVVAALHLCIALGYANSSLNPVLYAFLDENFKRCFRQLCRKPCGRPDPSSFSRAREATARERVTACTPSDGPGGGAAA
Assay: Agonist activity at human DOR expressed in CHO-K1 cells co-expressing G-alpha15 by calcium mobilization assay
Assay type: functional, cell-based
Conditions: not given
`NC(=O)[C@@H]1CCCN1C(=O)[C@H]1CC(=O)NCCCC[C@@H](NC(=O)[C@@H](N)Cc2ccc(O)cc2)C(=O)NCC(=O)N[C@H](Cc2ccccc2)C(=O)N1` showed an EC50 of 965 nM. `NC(=O)[C@H]1CCCN1C(=O)[C@@H]1CC(=O)NCCCC[C@@H](NC(=O)[C@@H](N)Cc2ccc(O)cc2)C(=O)NCC(=O)N[C@@H](Cc2ccccc2)C(=O)N1` showed an EC50 of 2.1 nM.

Same assay, conditions: cho-k1
In the case of `NC(=O)[C@H]1CCCN1C(=O)[C@@H]1CC(=O)NCCCC[C@@H](NC(=O)[C@@H](N)Cc2ccc(O)cc2)C(=O)NCC(=O)N[C@@H](Cc2ccc3ccccc3c2)C(=O)N1`, the EC50 is reported as 2.2 nM. `CC1(C)NC(=O)[C@H](NC(=O)[C@@H](N)Cc2ccc(O)cc2)CCCCNC(=O)C[C@@H](C(=O)N2CCC[C@@H]2C(N)=O)NC(=O)[C@H](Cc2ccccc2)NC1=O` showed an EC50 of 49.1 nM. Work on `CN1CC(=O)N[C@@H](Cc2ccccc2)C(=O)N[C@H](C(=O)N2CCC[C@@H]2C(N)=O)CC(=O)NCCCC[C@@H](NC(=O)[C@@H](N)Cc2ccc(O)cc2)C1=O` yielded an EC50 of 3030 nM.

Target: T3, Delta-type opioid receptor
Assay: Agonist activity at human DOR expressed in CHO-K1 cells co-expressing G-alpha15 by calcium mobilization assay relative to control
Assay type: functional, cell-based
Conditions: filed as agonist
In the case of `NC(=O)[C@@H]1CCCN1C(=O)[C@H]1CC(=O)NCCCC[C@@H](NC(=O)[C@@H](N)Cc2ccc(O)cc2)C(=O)NCC(=O)N[C@H](Cc2ccccc2)C(=O)N1`, the Emax is reported as 72.8%.

Test system: Mus musculus
Assay: Antinociceptive activity in Kunming mouse model assessed as latency of tail withdrawal at 1416 nmol/kg, sc measured for 10 mins by tail-flick test relative to control
Assay type: functional
Conditions: not given
`NC(=O)[C@@H]1CCCN1C(=O)[C@H]1CC(=O)NCCCC[C@@H](NC(=O)[C@@H](N)Cc2ccc(O)cc2)C(=O)NCC(=O)N[C@H](Cc2ccccc2)C(=O)N1` showed an MPE of 61.8%.

Test system: Mus musculus
Assay: Antinociceptive activity in Kunming mouse model assessed as latency of tail withdrawal at 13.9 nmol/kg, sc measured for 10 mins by tail-flick test relative to control
Assay type: functional
Conditions: not given
`C[C@H]1NC(=O)[C@H](NC(=O)[C@@H](N)Cc2ccc(O)cc2)CCCCNC(=O)C[C@H](C(=O)N2CCC[C@H]2C(N)=O)NC(=O)[C@H](Cc2ccccc2)NC1=O` showed an MPE of 63.6%.

Test system: Mus musculus
Assay: Antinociceptive activity in Kunming mouse model assessed as latency of tail withdrawal at 1416 nmol/kg, sc measured for 30 mins by tail-flick test relative to control
Assay type: functional
Conditions: 0.5 h
`NC(=O)[C@@H]1CCCN1C(=O)[C@H]1CC(=O)NCCCC[C@@H](NC(=O)[C@@H](N)Cc2ccc(O)cc2)C(=O)NCC(=O)N[C@H](Cc2ccccc2)C(=O)N1` showed an MPE of 86.6%.

Test system: Mus musculus
Assay: Antinociceptive activity in Kunming mouse model assessed as latency of tail withdrawal at 13.9 nmol/kg, sc measured for 30 mins by tail-flick test relative to control
Assay type: functional
Conditions: 0.5 h
For `C[C@H]1NC(=O)[C@H](NC(=O)[C@@H](N)Cc2ccc(O)cc2)CCCCNC(=O)C[C@H](C(=O)N2CCC[C@H]2C(N)=O)NC(=O)[C@H](Cc2ccccc2)NC1=O`, the MPE was 91.4%.

Test system: Mus musculus
Assay: Antinociceptive activity in Kunming mouse model assessed as latency of tail withdrawal at 1416 nmol/kg, sc measured for 60 mins by tail-flick test relative to control
Assay type: functional
Conditions: 1 h
In the case of `NC(=O)[C@@H]1CCCN1C(=O)[C@H]1CC(=O)NCCCC[C@@H](NC(=O)[C@@H](N)Cc2ccc(O)cc2)C(=O)NCC(=O)N[C@H](Cc2ccccc2)C(=O)N1`, the MPE is reported as 55.5%.

Test system: Mus musculus
Assay: Antinociceptive activity in Kunming mouse model assessed as latency of tail withdrawal at 13.9 nmol/kg, sc measured for 60 mins by tail-flick test relative to control
Assay type: functional
Conditions: 1 h
`C[C@H]1NC(=O)[C@H](NC(=O)[C@@H](N)Cc2ccc(O)cc2)CCCCNC(=O)C[C@H](C(=O)N2CCC[C@H]2C(N)=O)NC(=O)[C@H](Cc2ccccc2)NC1=O` showed an MPE of 88.4%.

Test system: Mus musculus
Assay: Antinociceptive activity in Kunming mouse model assessed as latency of tail withdrawal at 1416 nmol/kg, sc measured for 120 mins by tail-flick test relative to control
Assay type: functional
Conditions: 2 h
Compound `NC(=O)[C@@H]1CCCN1C(=O)[C@H]1CC(=O)NCCCC[C@@H](NC(=O)[C@@H](N)Cc2ccc(O)cc2)C(=O)NCC(=O)N[C@H](Cc2ccccc2)C(=O)N1` has an MPE of 28.3%.

Test system: Mus musculus
Assay: Antinociceptive activity in Kunming mouse model assessed as latency of tail withdrawal at 13.9 nmol/kg, sc measured for 120 mins by tail-flick test relative to control
Assay type: functional
Conditions: 2 h
In the case of `C[C@H]1NC(=O)[C@H](NC(=O)[C@@H](N)Cc2ccc(O)cc2)CCCCNC(=O)C[C@H](C(=O)N2CCC[C@H]2C(N)=O)NC(=O)[C@H](Cc2ccccc2)NC1=O`, the MPE is reported as 44.4%.

Test system: not listed separately
Assay: Stability in mouse plasma assessed as half life at 0.01 mol/L measured for 72 hrs by RP-HPLC analysis
Assay type: ADME, cell-free
Conditions: not given
For `NC(=O)[C@H]1CCCN1C(=O)[C@@H]1CC(=O)NCCCC[C@@H](NC(=O)[C@@H](N)Cc2ccc(O)cc2)C(=O)NCC(=O)N[C@@H](Cc2ccc3ccccc3c2)C(=O)N1`, the half-life at 0.01 mol/L was 20.3 h. For `C[C@H]1NC(=O)[C@H](NC(=O)[C@@H](N)Cc2ccc(O)cc2)CCCCNC(=O)C[C@H](C(=O)N2CCC[C@H]2C(N)=O)NC(=O)[C@H](Cc2ccccc2)NC1=O`, the half-life at 0.01 mol/L was > 72 h. With `CC1(C)NC(=O)[C@H](NC(=O)[C@@H](N)Cc2ccc(O)cc2)CCCCNC(=O)C[C@@H](C(=O)N2CCC[C@@H]2C(N)=O)NC(=O)[C@H](Cc2ccccc2)NC1=O` the half-life at 0.01 mol/L was > 72 h. With `NC(=O)[C@H]1CCCN1C(=O)[C@@H]1CC(=O)NCCCC[C@@H](NC(=O)[C@@H](N)Cc2ccc(O)cc2)C(=O)NCC(=O)N[C@@H](Cc2ccccc2)C(=O)N1` the half-life at 0.01 mol/L was 41.9 h.

From ChEMBL document CHEMBL5532665 (J Med Chem, 2024)
